SMILES strings stand for the structures. pIC50: −log10 of the molar value.

The text below walks through data of US20080200454A1, “CARBON-LINKED TETRAHYDRO-PYRAZOLO-PYRIDINE MODULATORS OF CATHEPSIN S” (priority 2007, published 2008).

Recombinant human cathepsin S (CatS), sequence (P25774 115-331): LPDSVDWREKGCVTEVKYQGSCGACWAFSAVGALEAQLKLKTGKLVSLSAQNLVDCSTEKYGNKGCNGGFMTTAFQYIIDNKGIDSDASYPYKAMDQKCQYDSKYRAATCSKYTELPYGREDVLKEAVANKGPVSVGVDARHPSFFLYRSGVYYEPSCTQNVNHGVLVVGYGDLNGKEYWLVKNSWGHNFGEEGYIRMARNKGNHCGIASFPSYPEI

The first experiment concerns the target Recombinant human cathepsin S (CatS) (Homo sapiens, UniProt P25774). The experiment is described as follows: Recombinant human cathepsin S (CatS) inhibition assay, fluorogenic substrate Z-Valine-Valine-Arginine-AMC.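 Note: Baculovirus-expressed CatS in pH 5.0 sodium acetate buffer with DTT and NaCl, fluorescence read each minute over 20 min, inhibition derived from rate slope.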
Conditions: not given
Take `CC(NCc1ccc(C#Cc2cc(-c3nn(CCCN4CCN(c5ccccc5)CC4)c4c3CN(S(C)(=O)=O)CC4)ccc2Cl)cc1)c1ccccc1` (stereo not drawn) [Example 478, N-({4-[(2-Chloro-5-{5-(methylsulfonyl)-1-[3-(4-phenylpiperazin-1-yl)propyl]-4,5,6,7-tetrahydro-1H-pyrazolo[4,3-c]pyridin-3-yl}phenyl)ethynyl]phenyl}methyl)-1-phenylethanamine]: the pIC50 was 7.40.
On the same count and under the same terms, under `NC(=O)N1CCc2c(c(-c3ccc(Cl)c(CCc4ccc(CNCc5ccc(Cl)cc5)cc4)c3)nn2CCCN2CCOCC2)C1` [Example 476, 3-(4-Chloro-3-{2-[4-({[(4-chlorophenyl)methyl]amino}methyl)phenyl]ethyl}phenyl)-1-(3-morpholin-4-ylpropyl)-1,4,6,7-tetrahydro-5H-pyrazolo[4,3-c]pyridine-5-carboxamide] stands 6.92; under `Cc1cccc(S(=O)(=O)NCCCc2cc(-c3nn(CCCN4CCC(N5CCCC5=O)CC4)c4c3CN(S(C)(=O)=O)CC4)ccc2Cl)c1` [Example 97, N-{3-[2-Chloro-5-(5-methanesulfonyl-1-{3-[4-(2-oxo-pyrrolidin-1-yl)-piperidin-1-yl]-propyl}-4,5,6,7-tetrahydro-1H-pyrazolo[4,3-c]pyridin-3-yl)-phenyl]-propyl}-3-methyl-benzenesulfonamide], 5.88.
On the same count and under the same terms, to `CS(=O)(=O)N1CCc2c(c(-c3ccc(Cl)c(CCCCN4CCCCCC4)c3)nn2CCCN2CCC(N3CCCC3=O)CC2)C1` [Example 114, 1-[1-(3-{3-[3-(4-Azepan-1-yl-butyl)-4-chloro-phenyl]-5-methanesulfonyl-4,5,6,7-tetrahydro-pyrazolo[4,3-c]pyridin-1-yl}-propyl)-piperidin-4-yl]-pyrrolidin-2-one] belongs 5.82.
Still for that read-out and setting: to `CS(=O)(=O)NCc1ccc(C#Cc2cc(-c3nn(CCCN4CCOCC4)c4c3CN(S(C)(=O)=O)CC4)ccc2Cl)cc1` [Example 70, N-(4-{2-Chloro-5-[5-methanesulfonyl-1-(3-morpholin-4-yl-propyl)-4,5,6,7-tetrahydro-1H-pyrazolo[4,3-c]pyridin-3-yl]-phenylethynyl}-benzyl)-methanesulfonamide] belongs 6.57; to `COC(=O)C(=O)N1CCc2c(c(-c3ccc(Cl)c(C#Cc4ccc(Cl)cc4)c3)nn2CCCN2CCOCC2)C1` [Example 136, [3-[4-Chloro-3-(4-chloro-phenylethynyl)-phenyl]-1-(3-morpholin-4-yl-propyl)-1,4,6,7-tetrahydro-pyrazolo[4,3-c]pyridin-5-yl]-oxo-acetic acid methyl ester], 7.30.

The same experiment, now with this note: CatS IC50.
Take `CS(=O)(=O)N1CCc2c(c(-c3ccc(Cl)c(C#Cc4ccc(CNCc5ccsc5)cc4)c3)nn2CCCN2CCOCC2)C1` [Example 422, 1-[4-({2-Chloro-5-[5-(methylsulfonyl)-1-(3-morpholin-4-ylpropyl)-4,5,6,7-tetrahydro-1H-pyrazolo[4,3-c]pyridin-3-yl]phenyl}ethynyl)phenyl]-N-(3-thienylmethyl)methanamine]: the pIC50 was 6.77.
On the same count and under the same terms, under `C[C@@H]1COCCN1CCCn1nc(-c2ccc(Cl)c(C#Cc3ccc(Cl)c(CNCCCO)c3)c2)c2c1CCN(C(N)=O)C2` [Example 222, 3-(4-Chloro-3-{4-chloro-3-[(3-hydroxy-propylamino)-methyl]-phenylethynyl}-phenyl)-1-[3-(3-methyl-morpholin-4-yl)-propyl]-1,4,6,7-tetrahydro-pyrazolo[4,3-c]pyridine-5-carboxylic acid amide] stands 7.70.
Turning to `C[C@H]1COCCN1CCCn1nc(-c2ccc(Cl)c(C#Cc3ccc(Cl)c(CNCc4ccccn4)c3)c2)c2c1CCN(C(=O)C(N)=O)C2` [Example 289, 2-(3-{4-Chloro-3-[(4-chloro-3-{[(pyridin-2-ylmethyl)amino]methyl}phenyl)ethynyl]phenyl}-1-{3-[(3S)-3-methylmorpholin-4-yl]propyl}-1,4,6,7-tetrahydro-5H-pyrazolo[4,3-c]pyridin-5-yl)-2-oxoacetamide], the pIC50 is 8.00.

Broadly, the pIC50 is −log10 of the IC50, conventionally taken in molar units.
